The results in this text go back to ChEMBL document CHEMBL1157472, “Synthesis of 5''-branched derivatives of cyclic ADP-carbocyclic-ribose, a potent Ca2+-mobilizing agent: The first antagonists modified at the N1-ribose moiety” (Bioorg Med Chem Lett, 2008).

Calls of active or inactive are those of the source. The calls are words filed in the database; no cut-off is given here.

One data set deals with Lytechinus pictus. Put plainly: Agonist activity at ryanodine receptor in sea urchin egg homogenates assessed as effect on calcium release at 30 uM by fluorimetry. The data set is classed as functional, tissue-based.
The nature of data set [1]: Antagonist activity at ryanodine receptor in sea urchin egg homogenates assessed as decrease in cADPcR-induced calcium release by fluorimetry. The data set is classed as functional, tissue-based, Lytechinus pictus.
Data set [2] can be described thus: Agonist activity at ryanodine receptor in sea urchin egg homogenates assessed as effect on calcium release by fluorimetry. The data set is classed as functional, Lytechinus pictus.
A short description of data set [3]: Stability in human serum at 37 degC after 3 days. It counts as ADME, cell-free. The following applies: read-out: Stability.

As to `NCC[C@H]1OP(=O)([O-])OP(=O)(O)OC[C@H]2O[C@H]([C@H](O)[C@@H]2O)n2cnc3c(N)[n+](cnc32)[C@@H]2C[C@H]1[C@@H](O)[C@H]2O`, in the data set on Lytechinus pictus, the result was inactive. Also, the IC50 (usually the concentration at which inhibition is half-maximal) in data set [1] was 73 µM.
On the same counts, the results for `[N-]=[N+]=NCC[C@H]1OP(=O)([O-])OP(=O)(O)OC[C@H]2O[C@H]([C@H](O)[C@@H]2O)n2cnc3c(N)[n+](cnc32)[C@@H]2C[C@H]1[C@@H](O)[C@H]2O` are “inactive” and 14 µM.
Regarding `Nc1c2ncn3c2nc[n+]1[C@@H]1C[C@H](COP(=O)([O-])OP(=O)(O)OC[C@H]2O[C@@H]3[C@H](O)[C@@H]2O)[C@@H](O)[C@H]1O`, the EC50 (commonly the concentration at which the effect is half-maximal) in data set [2] is 0.079 µM.
For `NCC[C@@H]1OP(=O)([O-])OP(=O)(O)OC[C@H]2O[C@H]([C@H](O)[C@@H]2O)n2cnc3c(N)[n+](cnc32)[C@@H]2C[C@H]1[C@@H](O)[C@H]2O`, the result with Lytechinus pictus was inactive. The IC50 in data set [1] came out at 120 µM.
As for `Nc1c2ncn3c2nc[n+]1[C@@H]1O[C@H](COP(=O)([O-])OP(=O)(O)OC[C@H]2O[C@@H]3[C@H](O)[C@@H]2O)[C@@H](O)[C@H]1O`, in data set [2], the EC50 stood at 0.21 µM.
Consider `[N-]=[N+]=NCC[C@@H]1OP(=O)(O)OP(=O)([O-])OC[C@H]2O[C@H]([C@H](O)[C@@H]2O)n2cnc3c(N)[n+](cnc32)[C@@H]2C[C@H]1[C@@H](O)[C@H]2O`, for which, in the data set with Lytechinus pictus, the outcome was inactive. Also, the remaining at 72 h in data set [3] was 89%. The IC50 in data set [1] worked out at 19 µM.
